Assay results reported in the Deep4Chem optical property database.
Several values for one entry are separate records, joined by “and”; a condition that tells them apart may be missing. Identical values can stand only once. Each block holds one compound with its values, some of them ahead of it.

Assay: photoluminescence quantum yield (fraction); solvent given as SMILES

photoluminescence quantum yield (in C1COCCO1): 0.87
Structure (SMILES): CCC12C(=C3C(=C4c5ccc(-c6ccccc6)cc5S(=O)(=O)C41CC)C(F)(F)C(F)(F)C3(F)F)c1ccc(-c3ccccc3)cc1S2(=O)=O (configuration not stated)

Structure (SMILES): CC1=C(c2cccs2)C(C)=[N+]2C1=C(c1ccc(OS(=O)(=O)c3ccc([N+](=O)[O-])cc3[N+](=O)[O-])cc1)c1c(C)c(-c3cccs3)c(C)n1[B-]2(F)F
photoluminescence quantum yield (in Cc1ccccc1): 0.059

Structure (SMILES): CN(C)c1ccc(-c2c(/C=C3/C=Cc4ccccc4N3Cc3ccccc3)c(=O)c2=O)cc1
photoluminescence quantum yield (in C1CCCCC1): 0.0146
photoluminescence quantum yield (in Cc1ccccc1): 0.0141
photoluminescence quantum yield (in ClCCl): 0.001

photoluminescence quantum yield (in CC#N): 0.03
photoluminescence quantum yield (in CCCCCC): 0.03
Structure (SMILES): Nc1ccc(/C=C/c2ccccc2)cc1

photoluminescence quantum yield (in ClC(Cl)Cl): 0.724
Structure (SMILES): CCCCCCCCCCCCOc1cc2c3c(ccc4c5c(OCCCCCCCCCCCC)cc6c7c(ccc(c1c34)c75)C(=O)N(C1CCCCC1)C6=O)C(=O)N(C1CCCCC1)C2=O

photoluminescence quantum yield (in ClCCl): 0.00105
Structure (SMILES): CCOC(=O)C1=C(C(=O)OC)N2CCc3cc(OC)c(OC)cc3C2=C[C@H](c2ccc(Cl)cc2)C12c1ccccc1-c1ccccc12

photoluminescence quantum yield (in CC#N): 0.1
photoluminescence quantum yield (in ClCCl): 0.05
Structure (SMILES): Cc1cc(-c2ccccc2C)cc(C)[o+]1

Structure (SMILES): COC(=O)C(Cc1ccc2oc(-c3ccc(-n4c5ccccc5c5ccccc54)cc3)nc2c1)NC(=O)OC(C)(C)C (configuration not stated)
photoluminescence quantum yield (in C1CCCCC1): 0.94
photoluminescence quantum yield (in C1CCOC1): 0.53
photoluminescence quantum yield (in C1COCCO1): 0.62
photoluminescence quantum yield (in CC1CCCO1): 0.52
photoluminescence quantum yield (in CC#N): 0.46
photoluminescence quantum yield (in CC(C)(C)O): 0.81
photoluminescence quantum yield (in CC(C)=O): 0.44
photoluminescence quantum yield (in CC(C)CC(C)(C)C): 0.55
photoluminescence quantum yield (in CC(C)O): 0.59
photoluminescence quantum yield (in CC(O)CO): 0.55
photoluminescence quantum yield (in CCCCCCCO): 0.65
photoluminescence quantum yield (in CCCCCCO): 0.73
photoluminescence quantum yield (in CCCCCO): 0.77
photoluminescence quantum yield (in CCCCO): 0.69
photoluminescence quantum yield (in CCO): 0.63
photoluminescence quantum yield (in CCOC(C)=O): 0.54
photoluminescence quantum yield (in CCOCC): 0.56
photoluminescence quantum yield (in CN(C)C=O): 0.58
photoluminescence quantum yield (in CO): 0.36
photoluminescence quantum yield (in CS(C)=O): 0.47
photoluminescence quantum yield (in Cc1ccccc1): 0.69
photoluminescence quantum yield (in OCCO): 0.52

photoluminescence quantum yield (in C1CCCCC1): 0.23 and 0.42
Structure (SMILES): c1ccc2ccccc2c1

photoluminescence quantum yield (in ClC(Cl)Cl): 0.074
Structure (SMILES): COc1ccc(-n2c3c4ccccc4nc(-c4ccc(C#N)cc4)c3c3c2c2c(-c4ccc(C#N)cc4)nc4ccccc4c2n3-c2ccc(OC)cc2)cc1

photoluminescence quantum yield (in ClCCl): 0.04
Structure (SMILES): CC(C)(C)NC(=O)c1ccc(F)c2ccc3c4ccccc4c4ccccc4c3c12

Structure (SMILES): CCn1c2ccccc2c2cc(C#Cc3cc(C#Cc4ccc5c(c4)c4ccccc4n5CC)ncn3)ccc21
photoluminescence quantum yield (in C1CCOC1): 0.74
photoluminescence quantum yield (in CCOC(C)=O): 0.83
photoluminescence quantum yield (in CN(C)C=O): 0.68
photoluminescence quantum yield (in Cc1ccccc1): 0.84
photoluminescence quantum yield (in ClCCl): 0.72

photoluminescence quantum yield (in ClC(Cl)Cl): 0.783
Structure (SMILES): N#Cc1ccc(C#Cc2ccc(C#Cc3ccccc3C#N)cc2C#N)cc1

Structure (SMILES): CN(C)/C=N\c1ccc2c3c(cccc13)C(=O)c1ccccc1-2
photoluminescence quantum yield (in C1CCOC1): 0.23
photoluminescence quantum yield (in CCCCCC): 0.31
photoluminescence quantum yield (in CCO): 0.26
photoluminescence quantum yield (in CCOC(C)=O): 0.28
photoluminescence quantum yield (in CN(C)C=O): 0.2
photoluminescence quantum yield (in CO): 0.27
photoluminescence quantum yield (in Cc1ccccc1): 0.66
photoluminescence quantum yield (in ClC(Cl)(Cl)Cl): 0.24
photoluminescence quantum yield (in ClC(Cl)Cl): 0.55
photoluminescence quantum yield (in ClCCl): 0.55
photoluminescence quantum yield (in c1ccccc1): 0.67

Structure (SMILES): COc1cc(OC)cc(C2=[O+][B-](F)(F)OC(c3ccc4cc(OC)ccc4c3)=C2)c1
photoluminescence quantum yield (in CC#N): 0.22
photoluminescence quantum yield (in CC(C)=O): 0.37
photoluminescence quantum yield (in CCCCCC): 0.26
photoluminescence quantum yield (in Cc1ccccc1): 0.79
photoluminescence quantum yield (in ClCCl): 0.95

photoluminescence quantum yield (in ClCCl): 0.282
Structure (SMILES): COC(=O)c1[nH]c(-c2ccc(OC)cc2)c2nnc3ccc(OC)cc3c12

Structure (SMILES): C[Si](C)(C)C#Cc1cc2ccc3cc(C#C[Si](C)(C)C)cc4ccc(c1)c2c34
photoluminescence quantum yield (in Cc1ccccc1): 0.19

photoluminescence quantum yield (in ClCCl): 0.156
Structure (SMILES): Cc1c(C)c2c3ccccc3[nH]c2c2ccccc12

photoluminescence quantum yield (in CC#N): 0.93
Structure (SMILES): CC1=C(c2ccccc2)C2=Cc3c(-c4ccccc4)c(C)c(C)n3[B-](F)(F)[N+]2=C1C
